From patent US11802120B2, “Fused cyclic urea derivatives as CRHR2 antagonist” (RaQualia Pharma Inc., priority 2018, dated 2023)

Biological target: T1, human CRHR2-alpha (Homo sapiens, UniProt Q13324)
T1 sequence (Q13324 1-411): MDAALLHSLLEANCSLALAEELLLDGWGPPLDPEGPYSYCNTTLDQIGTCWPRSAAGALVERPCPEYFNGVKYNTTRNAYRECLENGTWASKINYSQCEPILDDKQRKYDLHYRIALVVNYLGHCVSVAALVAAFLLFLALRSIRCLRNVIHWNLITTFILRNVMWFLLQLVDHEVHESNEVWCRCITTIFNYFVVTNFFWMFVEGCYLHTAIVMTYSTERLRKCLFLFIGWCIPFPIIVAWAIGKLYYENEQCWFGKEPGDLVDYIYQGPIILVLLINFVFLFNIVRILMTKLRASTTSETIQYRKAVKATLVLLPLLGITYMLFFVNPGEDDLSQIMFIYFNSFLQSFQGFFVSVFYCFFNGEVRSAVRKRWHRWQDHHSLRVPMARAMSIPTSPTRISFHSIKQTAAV
Assay: cAMP functional assay for human CRHR2 (LANCE Ultra cAMP, TR-FRET)
Type: cell-based
Settings: CHO-K1 cells expressing human CRHR2-alpha, agonist human urocortin2 at EC80, cAMP; read-out: IC50 against CRHR2
Procedure, shortened: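 Inhibition of agonist-driven cAMP was assessed in recombinant CHO-K1 cells at 25° C, using 30 min compound pretreatment and 30 min stimulation with EC80 human urocortin2 (CRHR2) or CRF (CRHR1). IC50 came from dose-response fitting.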

IC50 [nM] | Structure (SMILES)
< 300 | CN1CCN(c2ccc(-n3c(=O)n(C[C@H]4CC[C@H](NC(=O)c5cc(Cl)cnc5C(F)F)CC4)c4ccccc43)nc2)C1=O [Example 735, 5-chloro-2-(difluoromethyl)-N-((1r,4r)-4-((3-(5-(3-methyl-2-oxoimidazolidin-1-yl)pyridin-2-yl)-2-oxo-2,3-dihydro-1H-benzo[d]imidazol-1-yl)methyl)cyclohexyl) nicotinamide]
< 300 | Cc1ccc(-n2c(=O)n(C[C@H]3CC[C@H](NC(=O)c4cc(Cl)ccc4C4CC4)CC3)c3ccccc32)cn1 [Example 266, 5-chloro-2-cyclopropyl-N-((1r,4r)-4-((3-(6-methyl-pyridin-3-yl)-2-oxo-2,3-dihydro-1H-benzo[d]imidazol-1-yl)methyl)cyclo-hexyl)benzamide]
< 300 | O=C(N[C@H]1CC[C@H](Cn2c(=O)n(-c3ccc(-c4ncc[nH]4)nc3)c3ccccc32)CC1)c1cc(Cl)cnc1C(F)F [Example 733, N-((1r,4r)-4-((3-(6-(1H-imidazol-2-yl)pyridin-3-yl)-2-oxo-2,3-dihydro-1H-benzo[d]imidazol-1-yl)methyl)cyclohexyl)-5-chloro-2-(difluoromethyl)nicotinamide]
< 300 | O=C(N[C@H]1CC[C@H](Cn2c(=O)n(-c3ccn4cncc4c3)c3ccccc32)CC1)c1cc(Cl)cnc1C(F)(F)F [Example 342, 5-chloro-N-((1r,4r)-4-((3-(imidazo[1,5-a]pyridin-7-yl)-2-oxo-2,3-dihydro-1H-benzo[d]imidazol-1-yl)methyl)cyclohexyl)-2-(tri-fluoromethyl)nicotinamide]
< 300 | Cc1ncc(Cl)cc1C(=O)N[C@H]1CC[C@H](Cn2c(=O)n(-c3cnc4c(c3)oc(=O)n4C)c3ccccc32)CC1 [Example 215, 5-chloro-2-methyl-N-((1r,4r)-4-((3-(3-methyl-2-oxo-2,3-dihydrooxazolo[4,5-b]pyridin-6-yl)-2-oxo-2,3-dihydro-1H-benzo[d]imidazol-1-yl)methyl)cyclohexyl)nicotinamide]
< 300 | CNc1ccc(-n2c(=O)n(C[C@H]3CC[C@H](NC(=O)c4cc(Cl)cnc4C)CC3)c3ccccc32)cc1 [Example 646, 5-chloro-2-methyl-N-((1r,4r)-4-((3-(4-(methylamino)phenyl)-2-oxo-2,3-dihydro-1H-benzo[d]imidazol-1-yl)methyl)cyclohexyl)nicotinamide]
< 300 | Cc1ncc(Cl)cc1C(=O)N[C@H]1CC[C@H](Cn2c(=O)n(-c3ccc4c(CO)noc4c3)c3ccccc32)CC1 [Example 261, 5-chloro-N-((1r,4r)-4-((3-(3-(hydroxymethyl)benzo[d]isoxazol-6-yl)-2-oxo-2,3-dihydro-1H-benzo[d]imidazol-1-yl)methyl)cyclohexyl)-2-methylnicotinamide]
< 300 | O=C(N[C@H]1CC[C@H](Cn2c(=O)n(-c3ccc4cccnc4c3)c3ccccc32)CC1)c1cc(Cl)cnc1C(F)F [Example 422, 5-chloro-2-(difluoromethyl)-N-((1r,4r)-4-((2-oxo-3-(quinolin-7-yl)-2,3-dihydro-1H-benzo[d]imidazol-1-yl)methyl)cyclo-hexyl)nicotinamide]
< 300 | O=C(N[C@H]1CC[C@H](Cn2c(=O)n(-c3ccc4ncsc4c3)c3ncccc32)CC1)c1cc(Cl)cnc1C(F)F [Example 387, N-((1r,4r)-4-((3-(benzo[d]thiazol-6-yl)-2-oxo-2,3-dihydro-1H-imidazo[4,5-b]pyridin-1-yl)methyl)cyclo-hexyl)-5-chloro-2-(difluoro-methyl)nicotinamide]
< 300 | Cc1ncc(Cl)cc1C(=O)N[C@H]1CC[C@H](Cn2c(=O)n(-c3cnc4[nH]nc(C)c4c3)c3ccccc32)CC1 [Example 271, 5-chloro-2-methyl-N-((1r,4r)-4-((3-(3-methyl-1H-pyrazolo[3,4-b]pyridin-5-yl)-2-oxo-2,3-dihydro-1H-benzo[d]imidazol-1-yl)methyl)cyclohexyl)nicotinamide]
< 300 | CN(C)c1cc(-n2c(=O)n(C[C@H]3CC[C@H](NC(=O)c4cc(Cl)cnc4C(F)(F)F)CC3)c3ccccc32)ccn1 [Example 663, 5-chloro-N-((1r,4r)-4-((3-(2-(dimethylamino)pyridin-4-yl)-2-oxo-2,3-dihydro-1H-benzo[d]imidazol-1-yl)methyl)cyclohexyl)-2-(trifluoromethyl)nicotinamide]
< 300 | O=C(N[C@H]1CC[C@H](Cn2c(=O)n(-c3ccccc3Cl)c3cnccc32)CC1)c1cc(Cl)cnc1C(F)F [Example 721, 5-chloro-N-((1r,4r)-4-((3-(2-chlorophenyl)-2-oxo-2,3-dihydro-1H-imidazo[4,5-c]pyridin-1-yl)methyl)cyclo-hexyl)-2-(difluoromethyl) nicotinamide]
< 300 | Cc1ncc(Cl)cc1C(=O)N[C@H]1CC[C@H](Cn2c(=O)n(-c3ccc(N4CCN(C)CC4)nc3)c3ccccc32)CC1 [Example 55, 5-chloro-2-methyl-N-((1r,4r)-4-((3-(6-(4-methylpiperazin-1-yl)pyridin-3-yl)-2-oxo-2,3-dihydro-1H-benzo[d]imidazol-1-yl)methyl)cyclohexyl)nicotinamide]
< 300 | Cc1ncc(Cl)cc1C(=O)N[C@H]1CC[C@H](Cn2c(=O)n(-c3ccc(C(=O)Nc4cccnc4)nc3)c3ccccc32)CC1 [Example 177, 5-(3-(((1r,4r)-4-(5-chloro-2-methylnicotinamido)cyclo-hexyl)methyl)-2-oxo-2,3-dihydro-1H-benzo[d]imidazol-1-yl)-N-(pyridin-3-yl) picolinamide]
< 300 | O=C(N[C@H]1CC[C@H](Cn2c(=O)n(-c3ccc(NCC(F)F)nc3)c3ccccc32)CC1)c1cc(Cl)cnc1C(F)F [Example 464, 5-chloro-N-((1r,4r)-4-((3-(6-((2,2-difluoroethyl)amino)pyridin-3-yl)-2-oxo-2,3-dihydro-1H-benzo[d]imidazol-1-yl)methyl)cyclohexyl)-2-(difluoromethyl)nicotinamide]
< 300 | Cc1ncc(Cl)cc1C(=O)N[C@H]1CC[C@H](Cn2c(=O)n(-c3ccc(-c4ccon4)cc3)c3ccccc32)CC1 [Example 445, 5-chloro-N-((1r,4r)-4-((3-(4-(isoxazol-3-yl)phenyl)-2-oxo-2,3-dihydro-1H-benzo[d]imidazol-1-yl)methyl)cyclo-hexyl)-2-methylnicotinamide]
< 300 | CCC(=O)Nc1ccc(-n2c(=O)n(C[C@H]3CC[C@H](NC(=O)c4cc(Cl)cnc4C(F)F)CC3)c3ccccc32)cn1 [Example 510, 5-chloro-2-(difluoromethyl)-N-((1r,4r)-4-((2-oxo-3-(6-propionamidopyridin-3-yl)-2,3-dihydro-1H-benzo[d]imidazol-1-yl)methyl)cyclo-hexyl)nicotinamide]
< 300 | CCOc1ccc(-n2c(=O)n(C[C@H]3CC[C@H](NC(=O)c4cc(Cl)cnc4C)CC3)c3ccccc32)cn1 [Example 36, 5-chloro-N-((1r,4r)-4-((3-(6-ethoxypyridin-3-yl)-2-oxo-2,3-dihydro-1H-benzo[d]imidazol-1-yl)methyl)cyclohexyl)-2-methylnicotinamide]
< 300 | O=C(N[C@H]1CC[C@H](Cn2c(=O)n(Cc3ccccn3)c3ccccc32)CC1)c1cc(Cl)cnc1C(F)(F)F [Example 282, 5-chloro-N-((1r,4r)-4-((2-oxo-3-(pyridin-2-ylmethyl)-2,3-dihydro-1H-benzo[d]imidazol-1-yl)methyl)cyclohexyl)-2-(trifluoromethyl)nicotinamide]
< 300 | Cc1ncc(Cl)cc1C(=O)N[C@H]1CC[C@H](Cn2c(=O)n(-c3ccc4oc(N)nc4c3)c3ccccc32)CC1 [Example 263, N-((1r,4r)-4-((3-(2-aminobenzo[d]oxazol-5-yl)-2-oxo-2,3-dihydro-1H-benzo[d]imidazol-1-yl)methyl)cyclohexyl)-5-chloro-2-methylnicotinamide]
< 300 | Cc1ncc(Cl)cc1C(=O)N[C@H]1CC[C@H](Cn2c(=O)n(-c3ccc(OCC4CC4)nc3)c3ccccc32)CC1 [Example 112, 5-chloro-N-(4-((3-(6-(cyclopropylmethoxy)pyridin-3-yl)-2-oxo-2,3-dihydro-1H-benzo [d]imidazol-1-yl)methyl)cyclohexyl)-2-methylnicotinamide]
< 300 | Cc1ncc(Cl)cc1C(=O)N[C@H]1CC[C@H](Cn2c(=O)n(-c3ccc(-c4cnco4)nc3)c3ccccc32)CC1 [Example 202, 5-chloro-2-methyl-N-((1r,4r)-4-((3-(6-(oxazol-5-yl)pyridin-3-yl)-2-oxo-2,3-dihydro-1H-benzo[d]imidazol-1-yl)methyl)cyclo-hexyl)nicotinamide]
< 300 | O=C(Cn1c(=O)n(C[C@H]2CC[C@H](NC(=O)c3cc(Cl)ccc3C(F)(F)F)CC2)c2ccccc21)c1ccccc1 [Example 286, 5-chloro-N-((1r,4r)-4-((2-oxo-3-(2-oxo-2-phenylethyl)-2,3-dihydro-1H-benzo[d]imidazol-1-yl)methyl)cyclohexyl)-2-(trifluoromethyl)benzamide]
< 300 | Cc1ncc(Cl)cc1C(=O)N[C@H]1CC[C@H](Cn2c(=O)n(Cc3ccccc3C#N)c3ccccc32)CC1 [Example 241, 5-chloro-N-((1r,4r)-4-((3-(2-cyanobenzyl)-2-oxo-2,3-dihydro-1H-benzo[d]imidazol-1-yl)methyl)cyclohexyl)-2-methylnicotinamide]
